Data taken from patent publication US20240350481A1, “USE OF N-MYRISTOYL TRANSFERASE (NMT) INHIBITORS IN THE TREATMENT OF CANCER, AUTOIMMUNE DISORDERS, AND INFLAMMATORY DISORDERS” (PACYLEX PHARMACEUTICALS INC., priority 2020, published 2024).

Tested on: EGFP-N-Ras
Test: Palmitoylation of EGFP-N-Ras in COS-7 cells
Format: cell-based
Details: 10 μM
Method: The cells pre-treated with inhibitors were then labelled for 4 hrs with 100 μM Alkyne-C16. EGFP-tagged constructs were immunoprecipitated as described and reacted with azido-biotin using click chemistry. Biotinylated-palmitoylated proteins were detected using neutravidin-HRP conjugate and ECL. […] All western blots shown are representative of three independent experiments.

**Q.** With `Cc1c(N[S+](=O)([O-])c2c(Cl)cc(-c3ccnc(N4CCNCC4)c3)cc2Cl)c(CC(C)C)nn1C` [PCLX-001] as the compound, how does the “palmitoylation of EGFP-N-Ras” value read?
**A.** Its value is “does not inhibit”.
